Data taken from patent EP0159194B1, “Iron 3-hydroxypyrone or 3-hydroxypyridone complexes and pharmaceutical compositions containing them” (priority 1984, dated 1985).

Molecular target: apotransferrin (Homo sapiens, UniProt P02787)
Assay: Donation of iron to apotransferrin (59Fe, Sephadex G10 separation)
Type: biochemical
Conditions: 5 x 10^-5M apotransferrin, 1 x 10^-4M iron, pH 7.4
Experimental: (Maltol)2 (ascorbic acid) iron(III) was prepared in situ by dissolving maltol and ascorbic acid in a 2:1 molar ratio in an aqueous medium containing morpholine propane sulphonate (MOPS, 25 mM) and sodium hydrogen carbonate (30 mM), the pH being adjusted to 7.4 with hydrochloric acid (50% v/v). To the medium was added a solution of ^59Fe enriched ferric chloride in 0.1 M aqueous hydrochloric acid containing a molar amount of iron equivalent to that of the ascorbic acid. Equal volumes of the solution of the iron complex and of apotransferrin in the same aqueous medium were mixed to provide concentrations in the mixture of 5 x 10-^5M of apotransferrin and 1 x 10-^4M of iron.
The mixture was incubated at room temperature in separate experiments for 10 and 60 minutes and an aliquot was then added to a Sephadex G10 column equilibrated with the same aqueous medium described above and the column eluted with that medium, fractions being collected and counted. The percentages of ^59Fe associated with apotransferrin and with ligands are calculated as cpm iron-apotransferrin/total cpm and cpm iron-(maltol)2 (ascorbic acid)/total cpm.

[1] = after 10 minutes at room temperature
[2] = after 60 minutes at room temperature

Chain of apotransferrin (P02787 20-698): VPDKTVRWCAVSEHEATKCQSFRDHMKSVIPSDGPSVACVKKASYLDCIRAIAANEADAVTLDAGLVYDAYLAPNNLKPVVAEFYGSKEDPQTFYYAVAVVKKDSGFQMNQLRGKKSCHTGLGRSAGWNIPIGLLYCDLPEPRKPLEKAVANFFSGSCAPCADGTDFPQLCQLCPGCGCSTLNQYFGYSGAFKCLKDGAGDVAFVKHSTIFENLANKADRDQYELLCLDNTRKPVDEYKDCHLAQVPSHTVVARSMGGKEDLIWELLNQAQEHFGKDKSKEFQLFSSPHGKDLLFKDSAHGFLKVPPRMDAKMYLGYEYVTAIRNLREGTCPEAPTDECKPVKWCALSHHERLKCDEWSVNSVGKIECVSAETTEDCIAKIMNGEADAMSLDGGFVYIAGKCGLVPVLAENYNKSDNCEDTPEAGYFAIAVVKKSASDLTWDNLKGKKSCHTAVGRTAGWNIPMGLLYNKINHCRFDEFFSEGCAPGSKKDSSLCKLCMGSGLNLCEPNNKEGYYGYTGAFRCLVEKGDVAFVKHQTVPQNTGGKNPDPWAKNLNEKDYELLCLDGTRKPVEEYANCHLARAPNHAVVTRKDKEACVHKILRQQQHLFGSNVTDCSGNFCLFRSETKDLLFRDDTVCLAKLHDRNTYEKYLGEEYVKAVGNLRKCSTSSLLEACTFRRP

Substance: (maltol)2 (ascorbic acid) iron(III) complex
- 59Fe associated with apotransferrin [1]: 43%
- 59Fe associated with the ligands [1]: 57%
- 59Fe donated to the apotransferrin [2]: 75%
- 59Fe remaining associated with the ligands [2]: 25%
